Test results reported in publication PMC7688903 (Frontiers in Microbiology, 2020).
≈ marks a conversion by molar mass, not a printed value. Entries after “also recorded” stand apart in the source; their conditions may differ. Where a name gives a salt, the structure may show the parent alone. Read-outs that look alike come from different tables or passages of the source. Where a SMILES comes first, the peptide text is derived from it. Where no end group is shown, it is not given here. [ ]: non-standard residue; d: D form. hArg = N=C(N)NCCCC[C@H](N)C(=O)O; 2Thi = N[C@@H](Cc1cccs1)C(=O)O

How the values were obtained:
[1] = test system: proteases secreted by S. aureus ATCC 25923; assay: in vitro; settings: for remaining at 24 h, 0.5 mg/mL: Staphylococcus aureus, S. aureus ATCC 25923 culture supernatant, pH 8; for Percent of remained peptide amount after incubation (%): S. aureus ATCC 25923 culture supernatant (MH broth), pH 8.0, 0.22 μm filtered, peptide 0.5 mg/mL, 37°C, 24 h, RP-HPLC
Method: The stabilities of the peptides toward proteases secreted by E. coli ATCC 25922, P. aeruginosa ATCC 27853, A. baumannii ATCC 19606, S. aureus ATCC 25923, and C. albicans ATCC 10231 were also examined. Microbial supernatants were prepared by resuspending single colonies of each strain in 20 mL of an appropriate culture medium followed by incubation at 37°C overnight. MH broth and 2% tryptone/2% dextrose were used as the culture media for bacteria and yeast, respectively. Each culture was then centrifuged at 12,000 × g for 10 min and the supernatant was adjusted to pH 8.0 with HCl or NaOH and then filtered through a 0.22 μm sterile filter membrane ([Zaet et al., 2017]). The peptides were then dissolved in the filtered supernatants to a concentration of 0.5 mg/mL, and the peptide-free supernatants were used as negative controls. The samples were incubated at 37°C for 24 h in a water bath and then analyzed by RP-HPLC as described above.

human erythrocytes = assay: Hemolytic activity assay; assay type: cell-based; settings: human RBC in PB, 37°C, 1 h, OD420, total lysis control 0.1% SDS, three technical replicates
Method: Whole blood was obtained from a healthy volunteer. The red blood cells (RBC) were then centrifuged (800 × g, 10 min), washed twice with PB, resuspended in 1 mL of PB, and incubated with various concentrations of the peptides (32–128 μM) at 37°C for 1 h. As a positive control, total lysis of the RBC was accomplished by incubation with 0.1% SDS. For each condition, three technical replicates were performed. After incubation, the RBC were centrifuged at 800 × g for 10 min and the amount of hemoglobin released into the supernatant was determined by measuring the optical density OD420 using a SpectraMax i3x microplate reader (Molecular Devices) ([Zaet et al., 2017]).

S. aureus ATCC 25923 = assay: microbe, parasite or virus in culture; assay type: cell-based, Staphylococcus aureus
Method: (§1) The antimicrobial activities of the peptides were tested against E. coli ATCC 25922, P. aeruginosa ATCC 27853, carbapenem-resistant P. aeruginosa SIPI-012, A. baumannii ATCC 19606, carbapenem-resistant A. baumannii SIPI-025, S. aureus ATCC 25923, and C. albicans ATCC 10231. The minimum inhibitory concentration (MIC) values were determined using the microdilution method according to Clinical and Laboratory Standards Institute guidelines ([CLSI, 2008], [2012]). The peptides were dissolved in 10 mM PB to a concentration of 1280 μg/mL as stock solutions.
(§2) For inoculum preparation of bacteria, morphologically similar colonies selected from fresh MH agar plates were transferred using a loop into approximately 10 mL of MH broth in a capped test tube and vortexed. The suspension was adjusted with MH broth to achieve a turbidity equivalent to a 0.5 McFarland standard (BaSO4 solution prepared spectrophotometrically). A working suspension was prepared by making a 1:15 dilution followed by a 1:20 dilution of the stock suspension with MH broth medium to obtain approximately 5 × 10^5 CFU/mL. For inoculum preparation of yeast, five fresh colonies of approximately 1 mm diameter were picked from 24-hour-old cultures of C. albicans and suspended in 5 mL of sterile 0.85% saline. The resulting suspension was vortexed and the cell density was adjusted by adding sufficient sterile saline to achieve a turbidity equivalent to a 0.5 McFarland standard. A working suspension was prepared by making a 1:100 dilution followed by a 1:20 dilution of the stock suspension with RPMI 1640 broth medium to obtain 0.5 × 10^3 to 2.5 × 10^3 CFU/mL. Intermediate twofold dilutions of the peptides were prepared in MH broth and RPMI 1640 medium, and 90 μL aliquots were added to each well in addition to 10 μL of the inoculum prepared above.
(§3) Each plate included a growth control well and a sterility (uninoculated) control well. Colistin, vancomycin hydrochloride, and amphotericin B were used as positive controls for gram-negative bacteria, gram-positive bacteria, and fungi, respectively. The bacterial and fungal plates were incubated at 37°C for 20 h and 35°C for 48 h, respectively, both under ambient atmosphere. The inhibition of microbial growth was assessed visually. The MICs were determined from independent triplicate assays.

human plasma proteases = assay: in vitro
Method: The peptides were mixed with plasma from healthy volunteers to a final concentration of 0.1 mg/mL and incubated at 37°C. Aliquots (20 or 40 μL) were removed after 0, 2, 4, 6, 8, 12, 24, and 36 h, mixed with 0.05% TFA to a final concentration of 0.01 mg/mL, and incubated on ice for 10 min. After centrifugation (12,000 × g, 5 min), the supernatant was stored at −20°C. The samples were analyzed as described in section “Hydrophobicity” and quantified as described in section “Stability Toward Tryptic Degradation.” All stability tests were performed at least in triplicate. The identities of the metabolites after 12 h of degradation by plasma proteases were determined by LC-MS on a Waters Acquity UPLC-QDa system.

[2] = test system: carbapenem-resistant A. baumannii (CRAB) SIPI-025; assay type: cell-based, Acinetobacter baumannii; settings: carbapenem-resistant (CRAB) SIPI-025, 20 h
Method: as §1, §2, §3

A. baumannii ATCC 19606 = assay type: cell-based, Acinetobacter baumannii; settings: ATCC 19606, 20 h
Method: as §1, §2, §3

C. albicans ATCC 10231 = assay: microbe, parasite or virus in culture; assay type: cell-based, Candida albicans
Method: as §1, §2, §3

[3] = test system: carbapenem-resistant P. aeruginosa (CRPA) SIPI-012; assay type: cell-based, Pseudomonas aeruginosa; settings: carbapenem-resistant (CRPA) SIPI-012, 20 h
Method: as §1, §2, §3

P. aeruginosa ATCC 27853 = assay type: cell-based, Pseudomonas aeruginosa; settings: ATCC 27853, 20 h
Method: as §1, §2, §3

E. coli ATCC 25922 = assay type: cell-based, Escherichia coli; settings: ATCC 25922, 20 h
Method: as §1, §2, §3

RAW 264.7 cells = assay: Cell viability assay (MTT); assay type: cell-based, mouse; settings: 1–128 μM peptide in DMEM with 4% FBS, 42 h, 595 nm, triplicate
Method: The peptides were dissolved in ddH2O to a concentration of 256 μM. RAW 264.7 cells were cultured in 100 μL of DMEM containing 10% FBS and seeded at a density of 1 × 10^4 cells in a 96-well culture plate. The plate was incubated at 37°C under 5% CO2 atmosphere overnight. After attaining 80% confluency, the cells were treated with various concentrations of the peptides (1–128 μM) dissolved in DMEM containing 4% FBS for 42 h. Cytotoxicity was determined using the MTT tetrazolium reduction assay and quantified spectrophotometrically at 595 nm using a SpectraMax i3x microplate reader. The cell viability was calculated with respect to control samples treated only with DMEM containing 4% FBS ([Khara et al., 2016]). Each test was done in triplicate and the concentration required for 50% inhibition of viability (IC50) was determined.

Trypsin = assay: trypsin in 0.1 M NH4HCO3 buffer (pH 8.2); settings: 37°C, up to 24 h

Molecule | remaining at 24 h, 0.5 mg/mL [1] [%] | Hemolysis rate (%) (human erythrocytes; 64 μM) | Hemolysis rate (%) (human erythrocytes; 128 μM) | MIC (S. aureus ATCC 25923; ATCC 25923, 20 h) [µg/mL] | metabolised at 2 h, 0.1 mg/mL (human plasma proteases) [%] | metabolised at 4 h, 0.1 mg/mL (human plasma proteases) [%] | MIC [2] [µg/mL] | MIC (A. baumannii ATCC 19606) [µg/mL] | MIC (C. albicans ATCC 10231; ATCC 10231, 48 h) [µg/mL] | MIC [3] [µg/mL] | MIC (P. aeruginosa ATCC 27853) [µg/mL] | MIC (E. coli ATCC 25922) [µg/mL] | IC50 (RAW 264.7 cells) [µM] | Percent of remained peptide amount after incubation (%) [1] [%] | fragment found (Trypsin) | MIC (C. albicans ATCC 10231; Candida albicans, ATCC10231, C. albicans ATCC 10231, RPMI 1640, 35°C, 48 h, visual, independent triplicate assays, read-out: MIC) [µg/mL] | MIC (S. aureus ATCC 25923; Staphylococcus aureus, ATCC25923, 20 h) [µg/mL]
CC(C)C[C@H](NC(=O)[C@H](Cc1ccc(O)cc1)NC(=O)[C@H](CCCCN)NC(=O)[C@H](CC(C)C)NC(=O)[C@H](CC(C)C)NC(=O)[C@@H](CCCCN)NC(=O)[C@@H](CCCCN)NC(=O)[C@H](Cc1ccccc1)NC(=O)[C@H](CC(C)C)NC(=O)[C@H](CCCNC(=N)N)NC(=O)[C@@H](N)CCCCN)C(=O)N[C@@H](CCCNC(=N)N)C(=O)N[C@H](CCCCN)C(=O)N[C@@H](Cc1ccccc1)C(N)=O [DP04] (H-KRLF[dK][dK]LLKYLR[dK]F-NH2) | 63.7 ± 8.1 | 38.84 ± 1.61 | 58.26 ± 1.84 | 0.5 (≈ 0.266 µM) | > 40 | > 50 | 1 (≈ 0.532 µM) | 2 (≈ 1.06 µM) | 4 (≈ 2.13 µM) | 4 (≈ 2.13 µM) | 1 (≈ 0.532 µM) | 1 (≈ 0.532 µM) | 34.7 ± 3.69 | – | – | – | –
CC(C)C[C@H](NC(=O)[C@H](Cc1ccc(O)cc1)NC(=O)[C@H](CCCCN)NC(=O)[C@H](CC(C)C)NC(=O)[C@H](CC(C)C)NC(=O)[C@H](CCCCN)NC(=O)[C@H](CCCCN)NC(=O)[C@H](Cc1ccccc1)NC(=O)[C@H](CC(C)C)NC(=O)[C@H](CCCNC(=N)N)NC(=O)[C@@H](N)CCCCNC(=N)N)C(=O)N[C@@H](CCCNC(=N)N)C(=O)N[C@@H](CCCCN)C(=O)N[C@@H](Cc1cccs1)C(N)=O [UP10] (H-[hArg]RLFKKLLKYLRK[2Thi]-NH2) | 31.6 ± 7.81 | 56.82 ± 2.62 | 95.02 ± 1.84 | 0.5 (≈ 0.259 µM) | > 40 | > 50 | 2 (≈ 1.04 µM) | 2 (≈ 1.04 µM) | 4 (≈ 2.07 µM) | 4 (≈ 2.07 µM) | 1 (≈ 0.519 µM) | 2 (≈ 1.04 µM) | 22.8 ± 4.65 | – | – | – | –
CC(C)C[C@H](NC(=O)[C@H](Cc1ccc(O)cc1)NC(=O)[C@H](CCCCN)NC(=O)[C@H](CC(C)C)NC(=O)[C@H](CC(C)C)NC(=O)[C@H](CCCCN)NC(=O)[C@H](CCCCN)NC(=O)[C@H](Cc1ccccc1)NC(=O)[C@H](CC(C)C)NC(=O)[C@H](CCCNC(=N)N)NC(=O)[C@@H](N)CCCCN)C(=O)N[C@@H](CCCNC(=N)N)C(=O)N[C@@H](CCCCN)C(=O)N[C@@H](Cc1cccs1)C(N)=O [UP08] (H-KRLFKKLLKYLRK[2Thi]-NH2) | – | 52.49 ± 2.25 | 86.84 ± 1.24 | 1 (≈ 0.53 µM) | > 40 | > 50 | 2 (≈ 1.06 µM) | 2 (≈ 1.06 µM) | 4 (≈ 2.12 µM) | 4 (≈ 2.12 µM) | 2 (≈ 1.06 µM) | 2 (≈ 1.06 µM) | 14.6 ± 2.96 | 26.85 ± 2.61 | – | – | –
RRIFKRLFKYLRRF-NH2 [LP02] | 19.7 ± 8.58 | 24.18 ± 2.01 | 45.40 ± 2.40 | 1 | > 40 | > 50 | 4 | 2 | 8 | 8 | 2 | 2 | 14.4 ± 1.44 | – | – | – | –
krLFkkLLkYLrkF | – | – | – | – | – | – | – | – | – | – | – | – | – | – | krLFkkLLkYLr (k) 1–12, major, 18 h; also recorded: (r) LFkkLLkYLr (k) 3–12, major, 18 h | – | –
C[C@@H]1[C@H](O)[C@@H](C)/C=C/C=C/C=C/C=C/C=C/C=C/C=C/[C@H](O[C@@H]2O[C@H](C)[C@@H](O)[C@H](N)[C@@H]2O)C[C@@H]2O[C@](O)(C[C@@H](O)C[C@@H](O)[C@H](O)CC[C@@H](O)C[C@@H](O)CC(=O)O[C@H]1C)C[C@H](O)[C@H]2C(=O)O [AmB, amphotericin B, reference compound] | – | – | – | – | – | – | – | – | – | – | – | – | – | – | – | 0.25 (≈ 0.271 µM) | –
CN[C@H](CC(C)C)C(=O)N[C@H]1C(=O)N[C@@H](CC(N)=O)C(=O)N[C@H]2C(=O)N[C@H]3C(=O)N[C@H](C(=O)N[C@H](C(=O)O)c4cc(O)cc(O)c4-c4cc3ccc4O)[C@H](O)c3ccc(c(Cl)c3)Oc3cc2cc(c3O[C@@H]2O[C@H](CO)[C@@H](O)[C@H](O)[C@H]2O[C@H]2C[C@](C)(N)[C@H](O)[C@H](C)O2)Oc2ccc(cc2Cl)[C@H]1O [Van, vancomycin hydrochloride, reference compound] | – | – | – | – | – | – | – | – | – | – | – | – | – | – | – | – | 0.5
KRLFkkLLKYLRkF | – | – | – | – | – | – | – | – | – | – | – | – | – | – | (k) kLLK (Y) 6–9, major, 18 h; also recorded: (K) YLR (k) 10–12, major, 18 h; also recorded: (K) YLRkF 10–14, major, 18 h; also recorded: (K) RLFk (k) 2–5, major, 18 h | – | –
CC(C)C[C@H](NC(=O)[C@H](Cc1ccc(O)cc1)NC(=O)[C@H](CCCCN)NC(=O)[C@H](CC(C)C)NC(=O)[C@H](CC(C)C)NC(=O)[C@H](CCCCN)NC(=O)[C@H](CCCCN)NC(=O)[C@H](Cc1cccs1)NC(=O)[C@H](CC(C)C)NC(=O)[C@H](CCCNC(=N)N)NC(=O)[C@@H](N)CCCCN)C(=O)N[C@@H](CCCNC(=N)N)C(=O)N[C@@H](CCCCN)C(=O)N[C@@H](Cc1cccs1)C(N)=O [UP07] (H-KRL[2Thi]KKLLKYLRK[2Thi]-NH2) | – | 18.23 ± 2.76 | 30.10 ± 2.61 | 1 (≈ 0.528 µM) | > 40 | > 50 | 2 (≈ 1.06 µM) | 2 (≈ 1.06 µM) | 4 (≈ 2.11 µM) | 4 (≈ 2.11 µM) | 1 (≈ 0.528 µM) | 1 (≈ 0.528 µM) | 17.5 ± 2.99 | 24.86 ± 3.88 | – | – | –
